Assay results taken from ChEMBL document CHEMBL3885881, “DrugMatrix”.

Organism: Rattus norvegicus
Assay: DrugMatrix - Regimen: Daily Repeat
Type: toxicity, organism-based, Sprague-Dawley
Parameters: regimen Daily Repeat, gender Male, age 6-8 weeks
Details: in vivo, po, route oral GAVAGE, vehicle 100 % WATER; for BASOPHIL / EOSINOPHIL / ERYTHROCYTE COUNT / HEMATOCRIT / HEMOGLOBIN / LEUKOCYTE COUNT / LYMPHOCYTE / MEAN CORPUSCULAR HEMOGLOBIN / MEAN CORPUSCULAR HEMOGLOBIN CONCENTRATION / MEAN CORPUSCULAR VOLUME / MONOCYTE / NEUTROPHIL / PLATELET COUNT / ABSOLUTE BASOPHIL / ABSOLUTE EOSINOPHIL / ABSOLUTE LYMPHOCYTE / ABSOLUTE MONOCYTE: tissue Blood; for ALANINE AMINOTRANSFERASE / ALBUMIN / ALKALINE PHOSPHATASE / ASPARTATE AMINOTRANSFERASE / BLOOD UREA NITROGEN / CARBON DIOXIDE / CHLORIDE / CHOLESTEROL / CREATINE PHOSPHOKINASE / CREATININE / GLUCOSE / LACTATE DEHYDROGENASE / LIPASE / PHOSPHORUS / POTASSIUM / SODIUM / TOTAL BILIRUBIN / TOTAL PROTEIN / URIC ACID: tissue Plasma
[1] = 0 mg/kg, […], dose level Control, time 14 day
[2] = 120 mg/kg, 72 h, dose level High, time 3 day
[3] = 120 mg/kg, 120 h, dose level High, time 5 day

Compound: COCCc1ccc(OCC(O)CNC(C)C)cc1 (configuration not stated) [METOPROLOL]
- BASOPHIL [1]: 0.93%
- EOSINOPHIL [1]: 0.5%
- ERYTHROCYTE COUNT [1]: 7.2 x10E6/uL
- HEMATOCRIT [1]: 43.27%
- HEMOGLOBIN [1]: 14.73 G/DL
- LEUKOCYTE COUNT [1]: 12.58 x10E3/uL
- LYMPHOCYTE [1]: 75.5%
- MEAN CORPUSCULAR HEMOGLOBIN [1]: 20.5 pg
- MEAN CORPUSCULAR HEMOGLOBIN CONCENTRATION [1]: 34.07 G/DL
- MEAN CORPUSCULAR VOLUME [1]: 60.1 fL
- MONOCYTE [1]: 1.33%
- NEUTROPHIL [1]: 20.5%
- PLATELET COUNT [1]: 1162 x10E3/uL
- ALANINE AMINOTRANSFERASE [1]: 25.33 u/L
- ALBUMIN [1]: 3.87 G/DL
- ALKALINE PHOSPHATASE [1]: 321.67 u/L
- ASPARTATE AMINOTRANSFERASE [1]: 60.33 u/L
- BLOOD UREA NITROGEN [1]: 13.33 mg/dL
- CARBON DIOXIDE [1]: 45 mmol/L
- CHLORIDE [1]: 104.67 MEQ/L
- CHOLESTEROL [1]: 72.33 mg/dL
- CREATINE PHOSPHOKINASE [1]: 213.33 u/L
- CREATININE [1]: 0.3 mg/dL
- GLUCOSE [1]: 164 mg/dL
- LACTATE DEHYDROGENASE [1]: 84.33 u/L
- LIPASE [1]: 18.33 u/L
- PHOSPHORUS [1]: 10.23 mg/dL
- POTASSIUM [1]: 6.17 MEQ/L
- SODIUM [1]: 144 MEQ/L
- TOTAL BILIRUBIN [1]: 0.37 mg/dL
- TOTAL PROTEIN [1]: 6.43 G/DL
- URIC ACID [1]: 0.0667 mg/dL
- ABSOLUTE BASOPHIL [2]: 76.7 cells/µL
- ABSOLUTE EOSINOPHIL [2]: 230 cells/µL
- ABSOLUTE LYMPHOCYTE [2]: 5150 cells/µL
- ABSOLUTE MONOCYTE [2]: 220 cells/µL
- BASOPHIL [2]: 1.03%
- EOSINOPHIL [2]: 3.13%
- ERYTHROCYTE COUNT [2]: 6.58 x10E6/uL
- HEMATOCRIT [2]: 42.5%
- HEMOGLOBIN [2]: 14.4 G/DL
- LEUKOCYTE COUNT [2]: 7.41 x10E3/uL
- LYMPHOCYTE [2]: 69.3%
- MEAN CORPUSCULAR HEMOGLOBIN [2]: 21.87 pg
- MEAN CORPUSCULAR HEMOGLOBIN CONCENTRATION [2]: 33.8 G/DL
- MEAN CORPUSCULAR VOLUME [2]: 64.63 fL
- MONOCYTE [2]: 2.97%
- NEUTROPHIL [2]: 23.23%
- PLATELET COUNT [2]: 1007 x10E3/uL
- ALANINE AMINOTRANSFERASE [2]: 35 u/L
- ALBUMIN [2]: 3.7 G/DL
- ALKALINE PHOSPHATASE [2]: 368.67 u/L
- ASPARTATE AMINOTRANSFERASE [2]: 69.33 u/L
- BLOOD UREA NITROGEN [2]: 16.67 mg/dL
- CARBON DIOXIDE [2]: 34.67 mmol/L
- CHLORIDE [2]: 104 MEQ/L
- CHOLESTEROL [2]: 74.33 mg/dL
- CREATINE PHOSPHOKINASE [2]: 338.33 u/L
- CREATININE [2]: 0.47 mg/dL
- GLUCOSE [2]: 161.33 mg/dL
- LACTATE DEHYDROGENASE [2]: 274.33 u/L
- LIPASE [2]: 13 u/L
- PHOSPHORUS [2]: 11.6 mg/dL
- POTASSIUM [2]: 6.57 MEQ/L
- SODIUM [2]: 142.67 MEQ/L
- TOTAL BILIRUBIN [2]: 0.37 mg/dL
- TOTAL PROTEIN [2]: 6.03 G/DL
- URIC ACID [2]: 0.97 mg/dL
- ABSOLUTE BASOPHIL [3]: 66.7 cells/µL
- ABSOLUTE EOSINOPHIL [3]: 380 cells/µL
- ABSOLUTE LYMPHOCYTE [3]: 7010 cells/µL
- ABSOLUTE MONOCYTE [3]: 250 cells/µL
